The values below come from ChEMBL document CHEMBL1201862, “PubChem BioAssay data set” (2004).

The source made the active and inactive calls. For most assays here, no stated cut-off is given here; in the data, actives have a measured EC50 and inactives only a lower limit. Some results are limits rather than exact numbers.

For test [1], the target named is T1, Heat shock factor protein 1 (Mus musculus, UniProt P38532).
T1 sequence (P38532 whole entry): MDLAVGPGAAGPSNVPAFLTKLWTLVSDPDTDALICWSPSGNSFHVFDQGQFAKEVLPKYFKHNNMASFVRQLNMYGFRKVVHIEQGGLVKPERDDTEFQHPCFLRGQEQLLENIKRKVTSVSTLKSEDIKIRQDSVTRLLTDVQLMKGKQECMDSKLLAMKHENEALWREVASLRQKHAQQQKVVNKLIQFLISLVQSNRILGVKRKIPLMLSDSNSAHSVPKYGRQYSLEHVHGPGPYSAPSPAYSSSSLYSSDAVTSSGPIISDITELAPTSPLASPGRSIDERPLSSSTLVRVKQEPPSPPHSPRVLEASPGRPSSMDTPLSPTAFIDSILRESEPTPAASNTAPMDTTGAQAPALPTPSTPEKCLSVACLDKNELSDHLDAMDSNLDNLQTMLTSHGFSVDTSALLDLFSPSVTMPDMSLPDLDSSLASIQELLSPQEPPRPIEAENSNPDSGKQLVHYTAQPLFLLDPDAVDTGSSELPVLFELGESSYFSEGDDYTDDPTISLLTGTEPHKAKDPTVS
In words: inhibition of MG132-induced HSE-luciferase signal, confirmation, cell-based, NIH3T3, luminescence, dose retest (AID 2382).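 Further: NIH3T3 fibroblasts with HSF1-driven luciferase reporter stressed by proteasome inhibitor MG132; luminescence from HSF1-driven luciferase expression after 8 hours of MG132 stress.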 In kind it is functional.

A short description of test [2]: Luminescence Cell-Based Dose Response HTS to Identify Activators of Luciferase Translation or Activity in H4 […] Cells. [Related pubchem assays: 1829 (Project Summary), 1814 (Primary HTS)]. In kind it is functional.
Test [3] in a line: Luminescence Cell-Based Dose Confirmation HTS to Identify Activators of 5'UTR Stem-Loop Driven Alpha-Synuclein mRNA Translation in H4 Neuroglioblastoma Cells. [Related pubchem assays: 1829 (Project Summary), 1814 (Primary HTS)]. The format is functional.
In another test the test system is H4. In words: Luminescence Cell-Based Dose Response HTS to Identify Activators of 5'UTR Stem-Loop Driven Prion Protein mRNA Translation in H4 Neuroglioblastoma Cells. [Related pubchem assays: 1829 (Project Summary), 1814 (Primary HTS)]. The format is functional. The conditions noted are these: Homo sapiens.
Test [4] deals with T2, Corticotropin-releasing factor receptor 2/Corticotropin-releasing factor-binding protein (Homo sapiens, UniProt P24387+Q13324).
T2 sequence (Q13324 whole entry): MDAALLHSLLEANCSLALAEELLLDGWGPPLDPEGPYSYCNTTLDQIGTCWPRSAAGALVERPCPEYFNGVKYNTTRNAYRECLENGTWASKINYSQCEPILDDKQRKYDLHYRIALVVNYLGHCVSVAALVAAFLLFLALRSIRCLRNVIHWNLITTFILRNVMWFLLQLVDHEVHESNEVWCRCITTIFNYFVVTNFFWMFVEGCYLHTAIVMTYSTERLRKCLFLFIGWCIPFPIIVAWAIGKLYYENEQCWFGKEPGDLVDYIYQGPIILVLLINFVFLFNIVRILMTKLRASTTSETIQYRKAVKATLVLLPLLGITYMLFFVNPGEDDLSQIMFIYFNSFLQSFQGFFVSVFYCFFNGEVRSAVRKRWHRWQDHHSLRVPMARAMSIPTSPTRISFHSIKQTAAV
T2 sequence (P24387 whole entry): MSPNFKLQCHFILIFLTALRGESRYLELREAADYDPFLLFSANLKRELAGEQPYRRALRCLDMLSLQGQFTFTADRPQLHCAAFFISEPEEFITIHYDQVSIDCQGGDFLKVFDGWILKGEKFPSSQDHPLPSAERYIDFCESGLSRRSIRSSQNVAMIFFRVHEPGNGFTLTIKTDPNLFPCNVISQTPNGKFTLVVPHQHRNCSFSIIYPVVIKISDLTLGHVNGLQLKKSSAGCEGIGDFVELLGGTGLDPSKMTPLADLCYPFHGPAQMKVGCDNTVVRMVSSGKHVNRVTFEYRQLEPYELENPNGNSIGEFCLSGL
The experiment in a line: Dose Response confirmation of uHTS hits for small molecule antagonists of the CRF-binding protein and CRF-R2 receptor complex. The format is functional. The note with it: read-out: IC50_Mean.

The test system of another test is INS1. The experiment in a line: beta cell apoptosis inhibitors, cytokine rescue, dose response, luminescence, retest (AID 449756).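 Further: cell death triggered by IL-1 beta plus TNF-alpha plus IFN-gamma mixture; protective hits raise ATP signal compared with cytokine alone wells.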 In kind it is functional, cell-based. The conditions noted are these: Rattus norvegicus.
Test [5] addresses T2, Corticotropin-releasing factor receptor 2/Corticotropin-releasing factor-binding protein. In words: activators of CRF receptor 2 with binding protein – uHTS hits, confirmation (AID 602473). The format is functional. The conditions noted are these: read-out: EC50_Mean.
In test [6] the target is T3, Replicative DNA helicase DnaB (Mycobacterium tuberculosis, UniProt P9WMR3).
T3 sequence (P9WMR3 whole entry): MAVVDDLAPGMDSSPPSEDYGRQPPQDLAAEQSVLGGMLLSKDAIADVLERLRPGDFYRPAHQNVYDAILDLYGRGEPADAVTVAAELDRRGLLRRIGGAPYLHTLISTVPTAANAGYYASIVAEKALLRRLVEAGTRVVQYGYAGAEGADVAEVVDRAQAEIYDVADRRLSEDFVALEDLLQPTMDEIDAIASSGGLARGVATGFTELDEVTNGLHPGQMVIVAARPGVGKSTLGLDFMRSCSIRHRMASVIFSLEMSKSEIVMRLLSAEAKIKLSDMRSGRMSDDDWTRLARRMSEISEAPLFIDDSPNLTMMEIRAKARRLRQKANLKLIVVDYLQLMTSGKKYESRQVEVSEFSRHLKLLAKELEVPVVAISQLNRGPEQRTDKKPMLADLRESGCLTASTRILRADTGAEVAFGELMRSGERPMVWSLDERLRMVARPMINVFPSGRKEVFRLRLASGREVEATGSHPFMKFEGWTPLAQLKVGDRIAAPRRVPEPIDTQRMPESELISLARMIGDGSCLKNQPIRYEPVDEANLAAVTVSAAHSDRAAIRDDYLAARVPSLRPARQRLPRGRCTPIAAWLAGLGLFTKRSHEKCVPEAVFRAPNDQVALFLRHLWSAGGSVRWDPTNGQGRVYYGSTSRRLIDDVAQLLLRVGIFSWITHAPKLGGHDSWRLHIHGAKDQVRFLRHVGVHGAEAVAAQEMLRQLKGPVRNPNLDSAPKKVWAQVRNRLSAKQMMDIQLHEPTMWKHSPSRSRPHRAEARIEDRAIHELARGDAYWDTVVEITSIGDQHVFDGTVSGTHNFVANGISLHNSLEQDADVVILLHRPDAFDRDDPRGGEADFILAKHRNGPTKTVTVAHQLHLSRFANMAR
The experiment in a line: DnaB intein splicing inhibitors, dose response, biochemical, cell-free fluorescence (AID 449749). In kind it is functional.

In a further test the target is T4, Protein RecA (Mycobacterium tuberculosis, UniProt P9WHJ3).
T4 sequence (P9WHJ3 whole entry): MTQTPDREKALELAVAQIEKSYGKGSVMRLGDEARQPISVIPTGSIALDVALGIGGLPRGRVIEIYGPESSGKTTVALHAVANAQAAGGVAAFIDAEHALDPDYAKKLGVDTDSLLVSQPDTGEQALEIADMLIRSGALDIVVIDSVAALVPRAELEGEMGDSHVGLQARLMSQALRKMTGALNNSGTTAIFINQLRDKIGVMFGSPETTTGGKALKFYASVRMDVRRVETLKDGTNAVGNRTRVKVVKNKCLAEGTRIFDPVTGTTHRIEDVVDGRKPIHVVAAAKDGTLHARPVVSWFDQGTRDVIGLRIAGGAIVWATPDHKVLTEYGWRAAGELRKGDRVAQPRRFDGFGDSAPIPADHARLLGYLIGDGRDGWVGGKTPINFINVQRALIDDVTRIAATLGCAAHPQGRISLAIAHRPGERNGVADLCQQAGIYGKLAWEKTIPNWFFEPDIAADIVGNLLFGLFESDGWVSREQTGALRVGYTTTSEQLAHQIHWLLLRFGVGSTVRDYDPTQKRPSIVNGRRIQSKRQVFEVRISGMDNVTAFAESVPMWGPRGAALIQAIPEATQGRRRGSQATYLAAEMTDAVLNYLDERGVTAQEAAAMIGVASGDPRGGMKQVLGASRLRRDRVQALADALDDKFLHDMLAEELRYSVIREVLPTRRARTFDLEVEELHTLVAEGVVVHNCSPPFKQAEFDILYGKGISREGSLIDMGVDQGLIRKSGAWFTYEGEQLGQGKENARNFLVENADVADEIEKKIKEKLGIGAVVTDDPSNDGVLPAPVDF
In words: Fluorescence Cell-Free Homogeneous Dose Retest to Identify Inhibitors of RecA-Intein Splicing Activity. [Related pubchem assays (depositor defined):AID2097, AID2223, AID489010, AID492950]. The format is functional.

Turning to `COC(=O)c1ccc(Cn2nnc3c(O)nc(C4CCN(S(=O)(=O)c5ccc(F)cc5)CC4)nc32)cc1`, the EC50 in [1] is given as > 195 µM (not active).

Take `Cc1ccc(C(=O)N2CCCC(Nc3ccc(F)cc3)C2)cc1C` (stereo not drawn): the EC50 in [1] is on record as > 195 µM (not active). Take `CC(C)c1nnc(NC(=O)C2CCN(C(=O)c3ccco3)CC2)s1`: the EC50 in test [1] is > 195 µM (not active). With `O=C(Nc1ccccc1NC(=O)c1csnn1)c1csnn1`, in test [1], the EC50 is recorded as > 195 µM (not active).

For `O=C(Cn1nnc2ccccc21)NNC(=S)NC1CCCCC1`, the EC50 in [1] was > 195 µM (not active). For `CC(=O)c1ccc(NC(=O)c2cccc(S(=O)(=O)N3CCN(C)CC3)c2)cc1`, the EC50 in test [2] was 40.6 µM (active); in [3], 15.5 µM (active); in the test with H4, 20.7 µM (active). Turning to `CC(=O)Nc1ccc(SCC(=O)N2CCN(S(=O)(=O)c3ccccc3)CC2)cc1`, the EC50 in test [1] is reported as > 195 µM (not active). Regarding `COc1ccc(N2CCN(c3ccc(NC(=O)NN)cc3)CC2)cc1`, the EC50 in [1] is given as > 195 µM (not active). As for `COc1cc(/C=N/NC(=S)NC2CC3CC2C2C=CCC32)ccc1O` (stereo not drawn), the figures for the EC50 (in test [2]; in test [3]; with H4) were 69.7 µM (active), > 120 µM (not active) and > 120 µM (not active), respectively. `COc1ccc(-c2ccnc(SCC(=O)N3CCN(c4ccccc4)CC3)n2)cc1`: the IC50 in [4] is > 47.1 µM (inactive). Further, the AC50 in the test with INS1 is > 260 µM (inactive). In [5], the EC50 was > 53 µM (inactive). As for `Cc1cc(C)nc(N=C(N)Nc2ccc3c(c2)OCCO3)n1`, the EC50 in test [1] was > 195 µM (not active). `CCOC(=O)C1=C(c2ccccc2)OC(N)=C(C#N)C1C(C)C` (stereo not drawn): the EC50 (in test [2]; in test [3]; with H4) was > 120 µM (not active) in each case. As for `CCOc1ccc(C(=O)OCC(=O)c2c(N)n(C)c(=O)n(C)c2=O)cc1OCC`, the EC50 in test [2] is > 120 µM (not active); in test [3], > 120 µM (not active); with H4, 46.7 µM (inconclusive). Take `Cc1cccc(N(C(=O)c2nsc(Cl)c2Cl)C(C(=O)NC2CCCC2)c2ccc(O)cc2)c1` (stereo not drawn): the EC50 in [2] is 1.09 µM (active); in test [3], 0.548 µM (active); with H4 it was > 120 µM (not active). Take `CCOC(=O)c1ccc(Nc2[nH]cnc3ncnc2-3)cc1`: the EC50 in test [1] was > 195 µM (not active). With `O=C(c1ccc(Cl)cc1)n1cnc2ccccc21`, the AC50 in [6] is 7.49 µM (active). The EC50 on Protein RecA was 8.13 µM (active). Take `CCOC(=O)Cc1n[nH]c2c1C(c1ccoc1)C(C#N)=C(N)O2` (stereo not drawn): in [6], the AC50 is 18.4 µM (active). Also, at Protein RecA, the EC50 is 3.42 µM (active). In the case of `CC(=O)c1ccc(NC(=O)CCc2c(C)nc3ncnn3c2C)cc1`, the EC50 in test [2] is 8.11 µM (active); in test [3], 73.6 µM (active); in the test with H4, 37.1 µM (active).

Regarding `Cc1ccc(NC(=O)Cn2nnc3ccccc32)cc1`, the figures for the EC50 (in test [2]; in test [3]; in the test with H4) were > 120 µM (not active), 17.5 µM (active) and 111 µM (active), respectively. As for `c1ccc(Cc2nnc3sc(-c4cccs4)nn23)cc1`, in test [1], the EC50 is > 195 µM (not active). `COc1ccc(/C(O)=C\C=N\c2cc(C)on2)c(OC)c1`: the EC50 in [1] is given as > 195 µM (not active). `C=CCn1c(SCC(=O)N2CCc3ccccc3C2)nc2sc(C)c(C)c2c1=O`: the EC50 in [1] is recorded as > 195 µM (not active). With `CNCC(O)CN(c1ccccc1)c1ccccc1` (stereo not drawn), the AC50 in [6] is 34.3 µM (active). Besides, the EC50 on Protein RecA was 10.8 µM (active). As for `Cc1nn(-c2ccccc2)c(C)c1NC(=O)COc1ccc(Br)cc1Cl`, the AC50 in the test on INS1 is 34.2 µM (active).
